Measurements from patent US11578067B2, “Compound, and method for producing regulatory T cells” (Kyoto University, priority 2017, dated 2023).

Tests used:
[1] = tested on: naive Th cells; test: Induction from naive T cells to Tregs by CDK8/19 inhibitory drugs (CD25+ Foxp3+ cells, EC150); assay type: cell-based, mouse; conditions: concentration giving 150% CD25+ Foxp3+ cells versus 0.1% DMSO, 44 hours, geometric average of three trials
Experimental: The naive T cells were generated by the following method. […] Naive Th cells were prepared from the cell suspension using Naive CD4^+ T cell Isolation Kit, mouse (manufactured by Miltenyi Biotec). […] Further, Anti-Biotin MicroBeads and CD44 MicroBeads were added, followed by incubation at 4° C. for 10 minutes and then a centrifugation operation (300xg, 10 minutes). After the removal of the supernatant, the cells were resuspended in MEM and applied to an LS column (manufactured by Miltenyi Biotech). The cells contained in the flow-through liquid were used in the subsequent experiments. The prepared naive Th cells (2×10^5 cells) were stimulated with an anti-CD3/CD28 antibody (Gibco Dynabeads Mouse T-Activator CD3/CD28; manufactured by Thermo Fisher Scientific) in the presence of various CDK8/19 inhibitory drugs (usage amount: from 1 nM to 10,000 nM [[μM]]) at 5% CO2 at 37° C. […] The stained cells were measured using Canto II (manufactured by BD) by a flow cytometry method, and a proportion of CD25^+ Foxp3^+ cells in CD4^+ viable cells was analyzed using FlowJo (manufactured by FlowJo).

[2] = tested on: mouse actively-sensitized antibody-induced nasal allergy model; test: Actively-sensitized antibody-induced nasal allergy model, nasal rubbing; assay type: in vivo
Experimental: The mouse actively-sensitized antibody-induced nasal allergy model was generated by the following method. Seven-week-old BALB/c mice (manufactured by SLC, male) were initially sensitized by intraperitoneal administration of 200 μL of a mixed liquid of OVA (manufactured by Wako Pure Chemical Industries, Ltd.) (0.5 mg/mL) (100 μg/mouse), 5 mg/mL of aluminum hydroxide (ALUM; manufactured by Wako Pure Chemical Industries, Ltd.), and 1.5 μg/mL of pertussis toxin (manufactured by Wako Pure Chemical Industries, Ltd.). Next, 5 days after the initial sensitization, as additional sensitization, OVA (50 μg/mouse) was administered into the dorsal skin of the mice to perform systemic sensitization. After that, OVA (100 μg/mouse) was administered to the mice as nasal drops at a frequency of once a day as local sensitization for 8 days from day 18 after the initial sensitization to elicit a nasal allergy symptom due to active sensitization.
A 0.5% (w/v) methylcellulose solution serving as a vehicle was used for a vehicle control group, and dexamethasone (manufactured by Tokyo Chemical Industry Co., Ltd.) was used for a positive control.

[3] = tested on: OVA-induced asthma model; test: OVA-induced asthma model, airway resistance after methacholine; assay type: in vivo, mouse; conditions: 0.5 mg/kg oral once a day, 34 days, 25 mg/mL methacholine
[4] = tested on: Th1-type asthma model; test: Th1-type asthma model, airway resistance after methacholine; assay type: in vivo, mouse; conditions: 0.5 mg/kg oral once a day, 17 days, 25 mg/mL methacholine
[5] = target: CDK8 (Homo sapiens, UniProt P49336); test: CDK8 kinase activity measurement (QSS Assist CDK8/CycC_ELISA kit)
Chain of CDK8 (P49336 whole entry): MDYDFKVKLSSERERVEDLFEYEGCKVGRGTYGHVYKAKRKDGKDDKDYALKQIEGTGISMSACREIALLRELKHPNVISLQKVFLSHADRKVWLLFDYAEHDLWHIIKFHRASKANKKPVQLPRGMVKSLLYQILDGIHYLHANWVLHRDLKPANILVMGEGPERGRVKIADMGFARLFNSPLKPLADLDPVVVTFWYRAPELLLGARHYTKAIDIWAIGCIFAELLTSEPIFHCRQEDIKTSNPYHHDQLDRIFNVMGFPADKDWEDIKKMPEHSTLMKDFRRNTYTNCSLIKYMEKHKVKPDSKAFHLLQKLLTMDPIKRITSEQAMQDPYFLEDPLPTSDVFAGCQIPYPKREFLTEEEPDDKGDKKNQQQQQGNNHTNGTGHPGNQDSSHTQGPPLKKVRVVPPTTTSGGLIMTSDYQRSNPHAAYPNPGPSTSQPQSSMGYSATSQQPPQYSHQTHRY
Chain of CDK8 (P24863 whole entry partner): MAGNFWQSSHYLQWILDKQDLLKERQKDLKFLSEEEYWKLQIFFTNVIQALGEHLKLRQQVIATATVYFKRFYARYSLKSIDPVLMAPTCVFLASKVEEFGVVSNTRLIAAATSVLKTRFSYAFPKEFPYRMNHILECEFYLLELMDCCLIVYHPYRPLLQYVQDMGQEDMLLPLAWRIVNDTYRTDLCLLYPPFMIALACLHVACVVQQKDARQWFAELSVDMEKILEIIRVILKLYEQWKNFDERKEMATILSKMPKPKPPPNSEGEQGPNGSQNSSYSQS

[6] = target: CDK19 (Homo sapiens, UniProt Q9BWU1); test: CDK19 kinase activity measurement (QSS Assist CDC2L6/CycC_ELISA kit)
Chain of CDK19 (Q9BWU1 whole entry): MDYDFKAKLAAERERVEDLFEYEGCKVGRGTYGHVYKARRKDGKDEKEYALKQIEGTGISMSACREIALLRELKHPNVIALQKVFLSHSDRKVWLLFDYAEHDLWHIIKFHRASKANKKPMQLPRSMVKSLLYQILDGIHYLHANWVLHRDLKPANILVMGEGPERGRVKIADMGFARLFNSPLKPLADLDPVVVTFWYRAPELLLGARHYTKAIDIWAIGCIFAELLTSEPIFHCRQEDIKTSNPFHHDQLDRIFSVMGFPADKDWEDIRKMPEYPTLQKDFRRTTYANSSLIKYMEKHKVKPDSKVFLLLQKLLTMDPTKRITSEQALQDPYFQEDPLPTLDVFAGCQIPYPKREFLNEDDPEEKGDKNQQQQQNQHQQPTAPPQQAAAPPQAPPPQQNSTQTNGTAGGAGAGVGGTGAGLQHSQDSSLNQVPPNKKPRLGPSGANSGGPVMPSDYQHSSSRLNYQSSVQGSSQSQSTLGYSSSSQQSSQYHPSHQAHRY
Chain of CDK19 (P24863 whole entry partner): as the sequence (P24863 whole entry partner) above

[7] = tested on: CD4+ CD25− Foxp3− CD62L+ CD44− naive T cells; test: In vitro Foxp3 induction in naive T cells (Foxp3-GFP, flow cytometry); assay type: cell-based, mouse; conditions: hTGF-β1 2 ng/mL alone, anti-CD3/CD28, 72 hours
Experimental: The eFox mice were generated in accordance with a method described in Science. […] The prepared total lymphocytic cells were stained with an anti-CD4 antibody (RM-4.5; manufactured by BD), an anti-CD62L antibody (MEL-14; manufactured by BD), and an anti-CD44 antibody (IM7; manufactured by BD), and CD4^+ CD25^− Foxp3^− CD62L^+ CD44^− naive T cells were prepared using FACSAria™ II (manufactured by BD).
The cells after the treatment were stained with an anti-CD4 antibody (manufactured by BD), and a proportion of Foxp3-GFP-positive cells was analyzed by a flow cytometry method.

[8] = tested on: human naive CD4+ T cells (CD4+ CD25− CD45RA+ Foxp3−); test: Foxp3 induction in human naive CD4+ T cells with anti-TGF-β antibody or TGF-β; assay type: cell-based; conditions: hTGF-β1 2 ng/mL alone, hIL-2, 72 hours
Experimental: Human naive CD4^+ T cells (CD4^+ CD25^− CD45RA^+ Foxp3^−) were prepared from human peripheral blood mononuclear cells (manufactured by Wako Pure Chemical Industries, Ltd.) in the same manner as in Example 17. As shown in the following items (i) to (iv), the prepared naive T cells (2×10^5 cells) were stimulated using 5 μL of an anti-CD3/CD28 antibody (Gibco Dynabeads Human T-Activator CD3/CD28; manufactured by Thermo Fisher Scientific) in the presence/absence of 2 ng/mL of hTGF-β1 (manufactured by R&D) or 10 μg/mL of an anti-TGF-β antibody (manufactured by R&D), hIL-2 (manufactured by Shionogi & Co., Ltd.) (50 U/ml), and 100 nM of Compound 1 Salt, and treated under a 5% CO2 atmosphere at 37° C. for 72 hours.
(§1) The cells after the treatment were stained with an anti-CD4 antibody (manufactured by BD) and an anti-Foxp3 antibody (manufactured by eBioscience), and a proportion of Foxp3-positive cells was analyzed by a flow cytometry method.

[9] = tested on: human effector memory CD4+ T cells (CD4+ CD25− CD45RA− Foxp3−); test: Foxp3 induction in human effector memory CD4+ T cells; assay type: cell-based; conditions: TGF-β 2 ng/mL alone, hIL-2, 72 hours
Experimental: Human peripheral blood mononuclear cells (manufactured by Wako Pure Chemical Industries, Ltd.) were stained using an anti-CD4 antibody (RPA-T4; manufactured by BD), an anti-CD25 antibody (M-A251; manufactured by BD), and an anti-CD45RA antibody (HI100; manufactured by BD), and human effector memory CD4^+ T cells (CD4^+ CD25^− CD45RA^− Foxp3^−) were prepared using FACSAria™ II (manufactured by BD).
as §1

## NC(=O)[C@H](Nc1cncc(-c2ccc(O)c(Cl)c2)c1)c1ccccc1 [(R)-2-[5-(3-Chloro-4-hydroxyphenyl)-pyridin-3-ylamino]-2-phenylacetamide]
[1]
  EC150: 2.8 nM

## COc1ccc(N2CCC(n3c(-c4nccnc4N)nc4c(C)nccc43)CC2)cc1 [Compound 2, 3-{1-[1-(4-methoxyphenyl)piperidin-4-yl]-4-methyl-1H-imidazo[4,5-c]pyridin-2-yl}pyrazin-2-amine]
[2]; 1.0 mg/kg oral daily
  number of times of nasal rubbing: significantly suppressed
[2]; 3.0 mg/kg oral daily
  number of times of nasal rubbing: significantly suppressed
[3]
  airway reactivity (sRaw): suppressed an increase in airway reactivity
[4]
  airway reactivity (sRaw): suppressed an increase in airway reactivity
[1]
  EC150: 10.2 nM
[5]
  IC50: 0.7 nM
[6]
  IC50: 1.9 nM

## N#Cc1ccc2ncnc(NCCc3ccccc3)c2c1 [Senexin A]
[1]
  EC150: 192.2 nM

## TGF-β: hTGF-β1 (manufactured by R&D), used as control and in combination
[7]
  proportion of Foxp3-GFP-positive cells: 44.3%
[8]
  proportion of Foxp3-positive cells: 26.9%
[9]
  proportion of Foxp3-positive cells: 28.5%
